Assay [1] concerns the target T1, Recombinant STAT6 protein (STAT6(W123-T658)) (Homo sapiens, UniProt P42226).
T1 construct: Recombinant STAT6 protein (STAT6(W123-T658))
T1 sequence (P42226 123-658): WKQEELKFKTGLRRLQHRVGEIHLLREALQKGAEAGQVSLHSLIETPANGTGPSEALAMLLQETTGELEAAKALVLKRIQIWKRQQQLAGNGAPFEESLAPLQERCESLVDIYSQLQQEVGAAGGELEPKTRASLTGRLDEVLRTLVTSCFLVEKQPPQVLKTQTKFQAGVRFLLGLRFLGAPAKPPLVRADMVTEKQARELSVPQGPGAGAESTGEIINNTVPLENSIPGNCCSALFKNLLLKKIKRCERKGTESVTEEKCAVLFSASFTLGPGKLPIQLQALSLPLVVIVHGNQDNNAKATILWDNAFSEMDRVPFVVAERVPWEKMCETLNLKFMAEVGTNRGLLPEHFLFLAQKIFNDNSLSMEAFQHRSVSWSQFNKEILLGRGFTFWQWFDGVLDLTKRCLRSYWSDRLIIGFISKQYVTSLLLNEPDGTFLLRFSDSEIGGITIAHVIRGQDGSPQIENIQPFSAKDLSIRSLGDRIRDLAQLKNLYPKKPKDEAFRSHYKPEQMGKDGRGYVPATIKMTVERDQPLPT
The experiment in a line: STAT6 Fluorescence Polarization (FP) Assay. The note with it: STAT6(W123-T658) 250 nM, probe 5-FAM-ApYKPFQDLI-NH2 2 nM, 45-minute incubation. Type of assay: binding. The procedure, abridged: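 Displacement of a fluorescent phosphotyrosine peptide (5-FAM-ApYKPFQDLI-NH2, 2 nM) from STAT6(W123-T658) (250 nM), 1% DMSO, pH 7.4 HEPES buffer. After 45 min at room temperature, polarization (mP) was plotted versus log compound concentration and fitted by nonlinear regression to give IC50.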

Assay [2] has as its target T2, Recombinant STAT3 protein (STAT3(G127-I722)) (Homo sapiens, UniProt P40763).
T2 construct: Recombinant STAT3 protein (STAT3(G127-I722))
The experiment in a line: STAT3 Fluorescence Polarization (FP) Assay. Type of assay: binding. The note with it: STAT3(G127-I722) 25 nM, probe 5-FAM-GpYLPQTV-NH2 2 nM, 45-minute incubation. The essentials: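 Fluorescence polarization after a 45-min room-temperature incubation measured compound displacement of a 2 nM fluorescein-labelled phosphotyrosine peptide (5-FAM-GpYLPQTV-NH2) from 25 nM recombinant STAT3(G127-I722). Buffer was 10 mM HEPES pH 7.4 with 1% DMSO final. IC50s were fitted by nonlinear regression of mP against log concentration.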
(In fluorescence polarisation assays a small probe gives low polarisation when free and higher when bound to something large.)

Bounds are passed on as bounds.

T2 sequence (P40763 127-722): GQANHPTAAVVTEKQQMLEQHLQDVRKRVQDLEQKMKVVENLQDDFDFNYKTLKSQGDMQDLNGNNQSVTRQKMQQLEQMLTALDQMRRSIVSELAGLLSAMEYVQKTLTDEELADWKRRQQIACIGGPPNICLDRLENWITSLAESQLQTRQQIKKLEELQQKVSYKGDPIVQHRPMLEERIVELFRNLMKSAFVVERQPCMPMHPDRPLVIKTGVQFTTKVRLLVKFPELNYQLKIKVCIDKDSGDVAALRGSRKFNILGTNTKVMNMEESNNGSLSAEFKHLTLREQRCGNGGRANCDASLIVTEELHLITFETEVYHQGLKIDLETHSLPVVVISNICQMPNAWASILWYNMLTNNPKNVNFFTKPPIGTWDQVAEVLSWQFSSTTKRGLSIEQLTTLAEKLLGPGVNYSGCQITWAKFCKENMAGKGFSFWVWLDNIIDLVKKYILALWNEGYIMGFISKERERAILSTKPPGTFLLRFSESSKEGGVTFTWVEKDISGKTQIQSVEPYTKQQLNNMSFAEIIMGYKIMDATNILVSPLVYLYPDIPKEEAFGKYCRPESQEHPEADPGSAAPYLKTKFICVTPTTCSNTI

`O=C(N[C@H]1CN(C(=O)c2ncn3c2CCCC3)CC[C@H]2CC[C@@H](C(=O)N3CCOCC3)N2C1=O)c1ccc2ccc(C(F)P(=O)(O)O)cc2c1` (stereo partly drawn) [Compound 364, (fluoro(7-(((5S,8S,10aR)-8-(morpholine-4-carbonyl)-6-oxo-3-(5,6,7,8-tetrahydroimidazo[1,5-a]pyridine-1-carbonyl)decahydropyrrolo[1,2-a][1,5]diazocin-5-yl)carbamoyl)naphthalen-2-yl)methyl)phosphonic acid]: the figures for the IC50 in assay [1] and in assay [2] were 0.3 to 3 µM and more than 10 µM, respectively.
`O=C(N[C@H]1CN(C(=O)c2noc3ccc(Cl)cc23)CC[C@H]2CC[C@@H](C(=O)N3CCOCC3)N2C1=O)c1ccc2ccc(C(F)P(=O)(O)O)cc2c1` (stereo partly drawn) [Compound 365, ((7-(((5S,8S,10aR)-3-(5-chlorobenzo[d]isoxazole-3-carbonyl)-8-(morpholine-4-carbonyl)-6-oxodecahydro-pyrrolo[1,2-a][1,5]diazocin-5-yl)carbamoyl)naphthalen-2-yl)fluoromethyl) phosphonic acid]: the IC50 is not above 0.3 µM in assay [1] and more than 10 µM in assay [2].
On the same counts, the results for `Cc1ccc2cc(C(=O)N3CC[C@H]4CC[C@@H](C(=O)N5CCOCC5)N4C(=O)[C@@H](NC(=O)c4ccc5ccc(C(F)P(=O)(O)O)cc5c4)C3)cc(Cl)c2n1` (stereo partly drawn) [Compound 366, ((7-(((5S,8S,10aR)-3-(8-chloro-2-methyl-quinoline-6-carbonyl)-8-(morpholine-4-carbonyl)-6-oxodecahydropyrrolo [1,2-a][1,5]diazocin-5-yl)carbamoyl)naphthalen-2-yl)fluoromethyl) phosphonic acid] are 0.3 to 3 µM and more than 10 µM.
For `Cc1ccc2[nH]nc(C(=O)N3CC[C@H]4CC[C@@H](C(=O)N5CC(c6cc[nH]c(=O)c6)CC56CC6)N4C(=O)[C@@H](NC(=O)c4ccc5ccc(C(F)(F)P(=O)(O)O)cc5c4)C3)c2c1` (stereo partly drawn) [Compound 367, (difluoro(7-(((5S,8S, 10aR)-3-(5-methyl-1H-indazole-3-carbonyl)-6-oxo-8-(6-(2-oxo-1,2-dihydropyridin-4-yl)-4-azaspiro[2.4]heptane-4-carbonyl)decahydropyrrolo[1,2-a][1,5]diazocin-5-yl)carbamoyl)naphthalen-2-yl)methyl) phosphonic acid] the same measures were not above 0.3 µM and 1 to 10 µM.
For `Cc1ccc2onc(C(=O)N3CC[C@H]4CC[C@@H](C(=O)N5CCN(S(C)(=O)=O)CC5)N4C(=O)[C@@H](NC(=O)c4ccc5ccc(C(F)P(=O)(O)O)cc5c4)C3)c2c1` (stereo partly drawn) [Compound 368, (fluoro(7-(((5S,8S,10aR)-3-(5-methylbenzo[d]isoxazole-3-carbonyl)-8-(4-(methylsulfonyl)piperazine-1-carbonyl)-6-oxodecahydropyrrolo [1,2-a][1,5]diazocin-5-yl)carbamoyl)naphthalen-2-yl)methyl)phosphonic acid] the same measures were not above 0.3 µM and more than 10 µM.
With `Cc1ccc2onc(C(=O)N3CC[C@H]4CC[C@@H](C(=O)N5CCN(c6nsc7ccccc67)CC5)N4C(=O)[C@@H](NC(=O)c4ccc5ccc(C(F)P(=O)(O)O)cc5c4)C3)c2c1` (stereo partly drawn) [Compound 369, ((7-(((5S,8S,10aR)-8-(4-(benzo[d]isothiazol-3-yl)piperazine-1-carbonyl)-3-(5-methylbenzo[d]isoxazole-3-carbonyl)-6-oxodecahydropyrrolo [1,2-a][1,5]diazocin-5-yl)carbamoyl)naphthalen-2-yl)fluoromethyl) phosphonic acid], the concentration for half-maximal inhibition (IC50) in assay [1] is not above 0.3 µM; in assay [2] it was 1 to 10 µM.
On the same counts, the results for `Cc1ccc2onc(C(=O)N3CC[C@H]4CC[C@@H](C(=O)N5CCOC[C@@H]5c5ccccc5)N4C(=O)[C@@H](NC(=O)c4ccc5ccc(C(F)P(=O)(O)O)cc5c4)C3)c2c1` (stereo partly drawn) [Compound 370, (fluoro(7-(((5S,8S, 10aR)-3-(5-methylbenzo[d]isoxazole-3-carbonyl)-6-oxo-((S)-3-phenylmorpholine-4-carbonyl)decahydro-pyrrolo[1,2-a] [1,5]diazocin-5-yl)carbamoyl)naphthalen-2-yl)methyl)phosphonic acid] are not above 0.3 µM and more than 10 µM.
For `Cc1ccc2onc(C(=O)N3CC[C@H]4CC[C@@H](C(=O)N5CCOC[C@H]5c5ccccc5)N4C(=O)[C@@H](NC(=O)c4ccc5ccc(C(F)P(=O)(O)O)cc5c4)C3)c2c1` (stereo partly drawn) [Compound 371, (fluoro(7-(((5S,8S,10aR)-3-(5-methylbenzo[d]isoxazole-3-carbonyl)-6-oxo-8-((R)-3-phenylmorpholine-4-carbonyl)decahydro-pyrrolo[1,2-a][1,5]diazocin-5-yl)carbamoyl)naphthalen-2-yl)methyl)phosphonic acid] the same measures were not above 0.3 µM and more than 10 µM.
For `Cc1ccc2onc(C(=O)N3CC[C@H]4CC[C@@H](C(=O)N5C[C@@H]6C[C@H]5CO6)N4C(=O)[C@@H](NC(=O)c4ccc5ccc(C(F)P(=O)(O)O)cc5c4)C3)c2c1` (stereo partly drawn) [Compound 372, ((7-(((5S,8S,10aR)-8-((1S,4S)-2-oxa-5-azabicyclo[2.2.1]heptane-5-carbonyl)-3-(5-methylbenzo[d]isoxazole-3-carbonyl)-6-oxodecahydropyrrolo [1,2-a][1,5]diazocin-5-yl)carbamoyl)naphthalen-2-yl)fluoromethyl)phosphonic acid] the same measures were not above 0.3 µM and more than 10 µM.
With `Cc1ccc2onc(C(=O)N3CC[C@H]4CC[C@@H](C(=O)N5CCOC(Cc6ccccc6)C5)N4C(=O)[C@@H](NC(=O)c4ccc5ccc(C(F)P(=O)(O)O)cc5c4)C3)c2c1` (stereo partly drawn) [Compound 373, ((7-(((5S,8S,10aR)-8-(2-benzylmorpholine-4-carbonyl)-3-(5-methylbenzo[d]isoxazole-3-carbonyl)-6-oxodecahydropyrrolo [1,2-a][1,5]diazocin-5-yl)carbamoyl)naphthalen-2-yl)fluoromethyl) phosphonic acid], the IC50 in assay [1] is not above 0.3 µM; in assay [2], more than 10 µM.
On the same counts, the results for `CCc1ccc2onc(C(=O)N3CC[C@H]4CC[C@@H](C(=O)N5CCOCC56CC6)N4C(=O)[C@@H](NC(=O)c4ccc5ccc(C(F)P(=O)(O)O)cc5c4)C3)c2c1` (stereo partly drawn) [Compound 374, ((7-(((5S,8S,10aR)-3-(5-ethylbenzo[d]isoxazole-3-carbonyl)-6-oxo-8-(7-oxa-4-azaspiro[2.5]octane-4-carbonyl)decahydropyrrolo[1,2-a][1,5]diazocin-5-yl)carbamoyl)naphthalen-2-yl)fluoromethyl) phosphonic acid] are not above 0.3 µM and more than 10 µM.
Turning to `Cc1ccc2onc(C(=O)N3CC[C@H]4CC[C@@H](C(=O)N5CCOCC5)N4C(=O)[C@@H](NC(=O)c4ccc5ncc(C(F)P(=O)(O)O)cc5c4)C3)c2c1` (stereo partly drawn) [Compound 376, (fluoro(6-(((5S,8S, 10aR)-3-(5-methylbenzo[d]isoxazole-3-carbonyl)-8-(morpholine-4-carbonyl)-6-oxodecahydropyrrolo [1,2-a][1,5]diazocin-5-yl)carbamoyl)quinolin-3-yl)methyl)phosphonic acid], the IC50 is 0.3 to 3 µM in assay [1] and more than 10 µM in assay [2].
For `Cc1ccc2onc(C(=O)N3CC[C@H]4CC[C@@H](C(=O)N5CC6CCC(C5)O6)N4C(=O)[C@@H](NC(=O)c4ccc5ccc([C@H](F)P(=O)(O)O)cc5c4)C3)c2c1` [Compound 377, ((1R)-(7-(((5S,8S,10aR)-8-(8-oxa-3-azabicyclo[3.2.1]octane-3-carbonyl)-3-(5-methylbenzo[d]isoxazole-3-carbonyl)-6-oxodecahydropyrrolo [1,2-a][1,5]diazocin-5-yl)carbamoyl)naphthalen-2-yl)fluoromethyl)phosphonic acid] the same measures were not above 0.3 µM and more than 10 µM.
On the same counts, the results for `Cc1ccc2onc(C(=O)N3CC[C@H]4CC[C@@H](C(=O)N5CCOCC5)N4C(=O)[C@@H](NC(=O)c4cc(C#N)c5ccc(CP(=O)(O)O)cc5c4)C3)c2c1` [Compound 378, ((5-cyano-7-(((5S,8S, 10aR)-3-(5-methylbenzo[d]isoxazole-3-carbonyl)-8-(morpholine-4-carbonyl)-6-oxodecahydropyrrolo [1,2-a][1,5]diazocin-5-yl)carbamoyl)naphthalen-2-yl)methyl) phosphonic acid] are 0.3 to 3 µM and more than 10 µM.
Turning to `Cc1ccc2onc(C(=O)N3CC[C@H]4CC[C@@H](C(=O)N5CCOCC5)N4C(=O)[C@@H](NC(=O)c4ccc5c(F)cc(CP(=O)(O)O)cc5c4)C3)c2c1` [Compound 379, ((4-fluoro-7-(((5S,8S, 10aR)-3-(5-methylbenzo[d]isoxazole-3-carbonyl)-8-(morpholine-4-carbonyl)-6-oxodecahydropyrrolo [1,2-a][1,5]diazocin-5-yl)carbamoyl)naphthalen-2-yl)methyl)phosphonic acid], the half-maximal inhibitory concentration (IC50) in assay [1] was 0.3 to 3 µM; in assay [2], more than 10 µM.

As usually defined, the IC50 is the midpoint of a concentration-inhibition curve.

These data come from US20250179103A1, “6-OXODECAHYDROPYRROLO[1,2-A][1,5]DIAZOCINE AND 6-OXODECAHYDRO-4H-PYRROLO[2,1-D][1,5]THIAZOCINE DERIVATIVES AS STAT3 AND STAT6 MODULATORS FOR THE TREATMENT OF CANCER AND INFLAMMATORY CONDITIONS” (Recludix Pharma, Inc., priority 2022, published 2025).
